Measured values: patent US5834461A, “Tricyclic benzazepine vasopressin antagonists” (American Cyanamid Company, priority 1997, dated 1998)

Key:
[1] = biological target: T1, rat kidney medullary V2 receptors (Rattus norvegicus, UniProt Q00788); assay: Binding Assay to Rat Kidney Medullary V2 Receptors; settings: for IC50: rat kidney medullary V2
T1 construct: Medullary tissues from rat kidneys are dissected out; from tissue; host or cells: rat kidney medulla membranes
Protocol: Medullary tissues from rat kidneys are dissected out, cut into small pieces and soaked in a […] sodium chloride solution containing 1.0 mM EDTA with many changes of the liquid phase, until the solution is clear of blood. The tissue is homogenized in a 0.25M sucrose solution containing 1.0 mM EDTA and 0.1 mM PMSF using a Potter-Elvehjem homogenizer with a teflon pestle. The homogenate is filtered through several layers (4 layers) of cheese cloth. The filtrate is rehomogenized using a dounce homogenizer, with a tight fitting pestle. The final homogenate is centrifuged at 1500×g for 15 min. The nuclear pellet is discarded and the supernatant fluid recentrifuged at 40,000×g for 30 min. The resulting pellet formed contains a dark inner part with the exterior, slightly pink. The pink outer part is suspended in a small amount of 50.0 mM Tris.HCl buffer, pH 7.4. The protein content is determined by the Lowry's method (Lowry et al., J. Biol. Chem., 1953). The membrane suspension is stored at -70° C., in 50.0 mM Tris.HCl, containing 0.2% inactivated BSA and 0.1 mM PMSF in aliquots of 1.0 ml containing 10.0 mg protein per ml of suspension until use in subsequent binding experiments.
For binding experiments, the following is added in μl volume to wells of a 96 well format of a microtiter plate: 100.0 μl of 100.0 mM Tris.HCl buffer containing 0.2% heat inactivated BSA, 10.0 mM MgCl2 and a mixture of protease inhibitors: leupeptin, 1.0 mg %; aprotinin, 1.0 mg %; 1,10-phenanthroline, 2.0 mg %; trypsin inhibitor, 10.0 mg % and 0.1 mM PMSF, 20.0 μl of [^3 H] Arginine^8, vasopressin (S.A. 75.0 Ci/mmole) at 0.8 nM and the reaction initiated by the addition of 80.0 μl of tissue membranes (200.0 μg tissue protein). The plates are left undisturbed on the bench top for 120 min to reach equilibrium. Non-specific binding is assessed in the presence of 1.0 μM of unlabeled ligand, added in 20 μl volume. For test compounds, these are solubilized in 50% dimethylsulfoxide (DMSO) and added in 20.0 μl volume to a final incubation volume of 200 μl. Upon completion of binding, the content of each well is filtered off, using a Brandel® cell Harvester (Gaithersburg, Md.). The radioactivity trapped on the filter disk by the ligand-receptor complex is assessed by liquid scintillation counting in a Packard LS Counter, with an efficiency of 65% for tritium.

[2] = biological target: vasopressin V1 receptor (rat liver plasma membranes) (Rattus norvegicus, UniProt P30560); assay: Binding Assay to Rat Hepatic V1 Receptors; settings: for IC50: rat hepatic V1
Sequence of vasopressin V1 receptor (rat liver plasma membranes) (P30560 whole entry): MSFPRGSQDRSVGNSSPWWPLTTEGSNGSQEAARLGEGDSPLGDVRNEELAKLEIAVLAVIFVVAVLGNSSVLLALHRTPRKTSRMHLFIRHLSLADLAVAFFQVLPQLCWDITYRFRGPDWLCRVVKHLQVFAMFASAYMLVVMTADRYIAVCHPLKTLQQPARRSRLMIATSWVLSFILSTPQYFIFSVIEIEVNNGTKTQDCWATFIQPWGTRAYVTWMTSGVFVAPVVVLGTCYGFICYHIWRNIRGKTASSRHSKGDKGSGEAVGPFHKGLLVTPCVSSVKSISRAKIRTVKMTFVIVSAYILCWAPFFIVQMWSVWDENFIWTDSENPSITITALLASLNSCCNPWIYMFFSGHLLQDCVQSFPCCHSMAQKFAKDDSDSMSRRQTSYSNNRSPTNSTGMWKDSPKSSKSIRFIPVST
Protocol: Rat liver plasma membranes expressing the vasopressin V1 receptor subtypes are isolated by sucrose density gradient according to the method described by Lesko et al., (1973). These membranes are quickly suspended in 50.0 mM Tris.HCl buffer, pH 7.4, containing 0.2% bovine serum albumin (BSA) and 0.1 mM phenylmethylsulfonylfluoride (PMSF) and kept frozen at -70° C. until used in subsequent binding experiments. For binding experiments, the following is added to the wells of a ninety-six well format microtiter plate: 100 μl of 100.0 mM Tris.HCl buffer containing 10.0 mM MgCl2, 0.2% heat inactivated BSA and a mixture of protease inhibitors: leupeptin, 1.0 mg %; aprotinin, 1.0 mg %; 1,10-phenanthroline,2.0 mg %; trypsin inhibitor, 10.0 mg % and 0.1 mM PMSF, 20.0 μl of [phenylalanyl-3,4,5,-^3 H] vasopressin (S.A. 45.1 Ci/mmole) at 0.8 nM, and the reaction initiated by the addition of 80 μl of tissue membranes containing 20 μg of tissue protein. The plates are kept undisturbed on the bench top at room temperature for 120 min. to reach equilibrium. Non-specific samples are assayed in the presence of 0.1 μM of the unlabeled antagonist phenylalanylvasopressin, added in 20.0 μl volume.
For test compounds, these are solubilized in 50% dimethylsulfoxide (DMSO) and added in 20.0 μl volume to a final incubation volume of 200 μl. Upon completion of binding, the content of each well is filtered off, using a Brandel® cell Harvester (Gaithersburg, Md.). The radioactivity trapped on the filter disk by the ligand-receptor complex is assessed by liquid scintillation counting in a Packard LS Counter, with an efficiency of 65% for tritium.

vasopressin V1 = assay: Vasopressin V1 Antagonist Activity in Conscious Rats (vasopressin vasopressor response); assay type: in vivo, rat (spontaneously hypertensive rats); settings: 10 mg/kg i.v.
Protocol: Conscious rats are restrained in a supine position with elastic tape. The area at the base of the tail is locally anesthetized by subcutaneous infiltration with 2% procaine (0.2 ml). Using aseptic technique the ventral caudal tail artery is isolated and a cannula made of PE 10 and 20 (heat-fused) tubing is passed into the lower abdominal aorta. The cannula is secured, heparinized (1000 i.u./cc), sealed and the wound closed with one or two stitches of Dexon 4-0. The caudal vein is also cannulated in the same manner for intravenous drug administration. The duration of the surgery is approximately 5 minutes. Additional local anesthesia (2% procaine or lidocaine) is provided as needed.
The animals are placed in plastic restraining cages in an upright position. The cannula is attached to a Statham P23Db pressure transducer and pulsatile blood pressure is recorded. […] The vasopressin injections are repeated 30, 60, 90, 120, 180, 240 and 300 min. later. Percentage of antagonism by the compound is calculated using the pre-drug vasopressin vasopressor response as 100%.

[3] = rat kidney, read-out: V2, % at concentration in brackets
[4] = 2 h, rat hepatic, read-out: V1, % at concentration in brackets

T1 sequence (Q00788 whole entry): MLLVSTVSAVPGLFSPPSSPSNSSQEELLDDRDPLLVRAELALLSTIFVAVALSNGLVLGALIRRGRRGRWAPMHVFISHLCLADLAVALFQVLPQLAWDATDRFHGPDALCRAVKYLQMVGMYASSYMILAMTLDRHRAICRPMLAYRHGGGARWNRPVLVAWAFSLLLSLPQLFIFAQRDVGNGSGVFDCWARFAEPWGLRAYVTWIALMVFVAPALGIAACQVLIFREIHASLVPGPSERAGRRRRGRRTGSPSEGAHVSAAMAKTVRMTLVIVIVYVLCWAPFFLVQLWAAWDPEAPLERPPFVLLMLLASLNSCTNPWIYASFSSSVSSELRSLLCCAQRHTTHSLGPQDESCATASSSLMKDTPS

| Structure (SMILES) | IC50 [1] | IC50 [2] | further results |
| --- | --- | --- | --- |
| Cc1ccsc1C(=O)Nc1ccc(C(=O)N2Cc3ccccc3-c3ccccc32)cc1 [Example 3, 3-Methyl-N-[4-[(5(6H)-phenanthridinyl)carbonyl]-phenyl]-2-thiophenecarboxamide] | 420 nM | 170 nM | – |
| Cc1ccccc1C(=O)Nc1ccc(C(=O)N2Cc3cc(Cl)ccc3Oc3ccccc32)cc1 [Example 4] | 1700 nM | 1500 nM | – |
| Cc1ccccc1C(=O)Nc1ccc(C(=O)N2Cc3ccccc3CCc3ccccc32)cc1 [Example 6, N-[4-[(11,12-Dihydrodibenz[b,f]azocin-5-(6H)-yl)-carbonyl]phenyl]-2-methylbenzamide] | – | – | inhibition at 50 µM [1, 3]: 80%; inhibition at 50 µM [2, 4]: 60% |
| O=C(Nc1ccc(C(=O)N2Cc3ccccc3-c3ccccc32)cc1)c1c(Cl)cccc1Cl [Example 7] | 77 nM | 630 nM | – |
| O=C(Nc1ccc(C(=O)N2Cc3ccccc3-c3ccccc32)cc1)c1ccc(Cl)c(Cl)c1 [Example 8, 3.4-Dichloro-N-[4-[(5(6H)-phenanthridinyl)carbonyl]phenyl]benzamide] | 1500 nM | 2800 nM | – |
| O=C(Nc1ccc(C(=O)N2Cc3ccccc3Cc3ccccc32)cc1)c1cc(Cl)ccc1Cl [Example 9, N-[4-[(6,11-Dihydro-5H-dibenz[b,e]azepin-5-yl)carbonyl]phenyl]-2,5-dichlorobenzamide] | 280 nM | 1100 nM | – |
| Cc1ccc(C)c(C(=O)Nc2ccc(C(=O)N3Cc4ccccc4Cc4ccccc43)cc2)c1 [Example 12, N-[4-[(6,11-Dihydro-5H-dibenz[b,e]azepin-5-yl)carbonyl]phenyl]-2,5-dimethylbenzamide] | 180 nM | 390 nM | – |
| Cc1ccc(C(=O)Nc2ccc(C(=O)N3Cc4ccccc4Cc4ccccc43)cc2)c(C)c1 [Example 13, N-[4-[(6,11-Dihydro-5H-dibenz[b,e]azepin-5-yl)carbonyl]phenyl]2,4-dimethylbenzamide] | 300 nM | 340 nM | – |
| O=C(Nc1ccc(C(=O)N2Cc3ccccc3Cc3ccccc32)cc1)c1cccnc1 [Example 17, N-[4-[(6,11-Dihydro-5H-dibenz[b,e]azepin-5-yl)-carbonyl]phenyl]-3-pyridinecarboxamide] | – | – | inhibition at 50 µM [1, 3]: 52%; inhibition at 50 µM [2, 4]: 65% |
| Cc1ccsc1C(=O)Nc1ccc(C(=O)N2Cc3ccccc3Cc3ccccc32)cc1 [Example 18, N-[4-[(6,11-Dihydro-5H-dibenz[b,e]azepin-5-yl)carbonyl]phenyl]-3-methyl-2-thiophenecarboxamide] | 520 nM | 84 nM | – |
| O=C(Nc1ccc(C(=O)N2Cc3ccccc3Cc3ccccc32)cc1)c1cccc(C(F)(F)F)c1 [Example 19, N-[4-[(6,11-Dihydro-5H-dibenz[b,e]azepine-5-yl)carbonyl]phenyl]-3-(trifluoromethyl)benzamide] | 1200 nM | 1300 nM | – |
| O=C(Nc1ccc(C(=O)N2Cc3ccccc3Cc3ccccc32)cc1)c1ccc(C(F)(F)F)cc1 [Example 20, N-[4-[(6,11-Dihydro-5H-dibenz[b,e]azepin-5-yl)carbonyl]phenyl]-4-(trifluoromethyl)benzamide] | – | – | inhibition at 10 µM ([1]; 10 μM, rat kidney, read-out: V2, % at concentration in brackets): 48%; inhibition at 10 µM ([2]; 2 h, 10 μM, rat hepatic, read-out: V1, % at concentration in brackets): 17% |
| O=C(Nc1ccc(C(=O)N2Cc3ccccc3Cc3ccccc32)cc1)c1ccc(F)cc1F [Example 21, N-[4-[(6,11-Dihydro-5H-dibenz[b,e]azepin-5-yl)carbonyl]phenyl]-2,4-difluorobenzamide] | 440 nM | 280 nM | – |
| Cc1ccccc1C(=O)Nc1ccc(C(=O)N2Cc3cc(S(=O)(=O)N(C)C)ccc3Oc3ccccc32)cc1 [Example 23, N-[4-[[2-[(Dimethylamino)sulfonyl]dibenz[b,f][1,4]oxazepin-10(11H)-yl]carbonyl]phenyl]-2-methylbenzamide] | – | – | inhibition at 50 µM [1, 3]: 47%; inhibition at 50 µM [2, 4]: 19% |
| O=C(Nc1ccc(C(=O)N2Cc3ccccc3Cc3ccccc32)cc1)c1ccccc1 [Example 24, N-[4-[(6,11-Dihydro-5H-dibenz[b,e]azepin-5-yl)carbonyl]phenyl]benzamide] | 410 nM | 170 nM | – |
| O=C(Nc1ccc(C(=O)N2Cc3ccccc3Cc3ccccc32)cc1)c1ccccc1OC(F)(F)F [Example 25, N-[4-[(6,11-Dihydro-5H-dibenz[b,e]azepin-5-yl)carbonyl]phenyl]-2-(trifluoromethoxy)benzamide] | 560 nM | 52 nM | – |
| Cc1occc1C(=O)Nc1ccc(C(=O)N2Cc3ccccc3Cc3ccccc32)cc1 [Example 119] | 1100 nM | 39 nM | – |
| COc1cc(Cl)ccc1C(=O)Nc1ccc(C(=O)N2Cc3ccccc3Cc3ccccc32)cc1 [Example 165, N-[4-[(6,11-Dihydro-5H-dibenz[b,e]azepin-5-yl)carbonyl]phenyl]-2-methoxy-4-chlorobenzamide] | 370 nM | 490 nM | – |
| O=C(Nc1ccc(C(=O)N2Cc3ccccc3Cc3ccccc32)cc1)c1ccccc1C(F)(F)F [Example 166, N-[4-[(6,11-Dihydro-5H-dibenz(b,e]azepin-5-yl)carbonyl]phenyl]-2-trifluoromethylbenzamide] | 245 nM | 83 nM | – |
| O=C(Nc1ccc(C(=O)N2Cc3ccccc3Sc3ccccc32)cc1)c1ccc(Cl)cc1Cl [Example 449, N-[4-[(Dibenz[b,f][1,4]thiazepin-10(11H)-yl)-carbonyl]phenyl]-2 4-dichlorobenzamide] | 250 nM | 360 nM | MAX % Inhibition (vasopressin V1): 45%; Time of max % inhibition (vasopressin V1): 90 min |
